The text below walks through data of ChEMBL document CHEMBL1137981, “Identification and specificity studies of small-molecule ligands for SH3 protein domains” (J Med Chem, 2004).

SMILES strings stand for the structures.

Series [1] has as its target T1, Tyrosine-protein kinase TEC (Mus musculus, UniProt Q8CFK4).
T1 sequence (Q8CFK4 whole entry): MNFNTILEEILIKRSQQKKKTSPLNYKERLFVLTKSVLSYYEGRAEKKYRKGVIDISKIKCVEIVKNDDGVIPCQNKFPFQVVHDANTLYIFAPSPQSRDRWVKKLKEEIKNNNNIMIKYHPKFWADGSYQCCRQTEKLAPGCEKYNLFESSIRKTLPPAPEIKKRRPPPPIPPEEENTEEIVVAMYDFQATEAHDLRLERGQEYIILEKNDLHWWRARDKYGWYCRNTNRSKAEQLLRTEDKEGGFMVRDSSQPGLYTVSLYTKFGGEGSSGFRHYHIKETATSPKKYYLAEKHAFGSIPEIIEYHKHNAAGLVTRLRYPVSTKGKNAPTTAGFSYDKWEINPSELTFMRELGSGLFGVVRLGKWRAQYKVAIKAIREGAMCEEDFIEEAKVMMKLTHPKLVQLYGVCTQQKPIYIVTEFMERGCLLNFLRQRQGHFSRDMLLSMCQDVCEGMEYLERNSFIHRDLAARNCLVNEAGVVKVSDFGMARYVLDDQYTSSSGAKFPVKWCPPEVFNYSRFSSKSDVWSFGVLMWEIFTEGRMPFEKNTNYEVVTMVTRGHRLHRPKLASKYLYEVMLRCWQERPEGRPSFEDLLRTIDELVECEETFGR
The series can be described thus: Binding affinity to mouse Tec kinase SH3 domain by NMR chemical shift perturbation; No binding.

For series [2], the target named is SH2/SH3 adapter protein NCK1 (Homo sapiens, UniProt P16333). The series can be described thus: Displacement of PRP-1 peptide from human Nck […] SH3 domain by fluorescence polarization. A general note: In fluorescence polarisation assays a small probe gives low polarisation when free and higher when bound to something large.
Series [3] concerns the target T1, Tyrosine-protein kinase TEC. In words: Displacement of PRP-1 peptide from mouse Tec kinase SH3 domain by fluorescence polarization.
Series [4] shares this target. In words: Binding affinity to mouse Tec kinase SH3 domain by NMR chemical shift perturbation.
For series [5] the target is unchanged. The series can be described thus: Displacement of PRP-1 peptide from mouse Tec kinase SH3 domain by fluorescence polarization; No competition.
Series [6] in a line: Ionization constant (pKa) for the compound. In kind it is physicochemical.
The target in series [7] is T1, Tyrosine-protein kinase TEC. In words: Binding affinity to mouse Tec kinase SH3 domain by NMR chemical shift perturbation; No binding. The source holds these as a separate data set.

By Kd is commonly meant the equilibrium constant for the complex coming apart. Turning to `O=c1ccc2ccccc2[nH]1`, the Kd result in series [1] is “Not Active”. What is called EC50 is the concentration giving half of the maximal effect. `Cc1ccc2nc(N)ccc2c1`: the 50% effective concentration (EC50) in series [2] was 90 µM; in series [3] it was 75 µM. For the same molecule, the Kd in series [4] was found to be 61 µM.

Regarding `CC1(C)COC(c2ccc3nc(N)ccc3c2)OC1`, the Kd in series [4] is 22 µM. For the molecule `CC(=O)Nc1ccc2ccccc2n1`, the Kd entry in series [1] is on record as “Not Active”. For the molecule `Nc1ccc2ccccc2c1` [NAPHTHYLAMINE], the Kd entry in series [1] is on record as “Not Active”. Take `Nc1ccc2cccc(O)c2n1`: the 50% effective concentration (EC50) entry in series [5] is recorded as “Not Active”. Consider `Nc1ccccn1` [2-AMINOPYRIDINE], for which, in series [4], the dissociation constant (Kd) is > 4000 µM. Broadly, the pKa is the pH at which an ionisable group is half protonated. Read a low pKa as a group that gives up its proton readily. `Nc1ncccn1`: the pKa in series [6] was 3.54. Further, the Kd result in series [7] was “Not Active”. Consider `Nc1ccc2cc(F)ccc2n1`, for which the 50% effective concentration (EC50) in series [3] came out at 150 µM.

As for `Nc1ccc2cc(Cl)ccc2n1`, a half-maximal effect in series [3] (EC50) was put at 76 µM. Regarding `Nc1ncc2ccccc2n1`, in series [6], the pKa was 4.82. The molecule `COc1ccc2nc(N)ccc2c1` came in with a 50% effective concentration (EC50) in series [3] of 63 µM. That is a double-digit micromolar value.

In the case of `Nc1ccc2cc(C3OCCCO3)ccc2n1`, the figures for the EC50 in series [2] and in series [3] were > 500 µM and 26 µM, respectively. Moreover, the Kd in series [4] worked out at 52 µM. In series [3], `Nc1ccc2cc(Br)ccc2n1` yielded a half-maximal effective concentration (EC50) of 58 µM. Regarding `c1ccc2ncccc2c1` [QUINOLINE], the equilibrium dissociation constant (Kd) result in series [1] was “Not Active”. Turning to `Nc1ccc2cc(C3OCCO3)ccc2n1`, the concentration giving a half-maximal response (EC50) stood at 300 µM in series [2] and 34 µM in series [3]. The equilibrium dissociation constant (Kd) in series [4] was 40 µM. `CNc1ccc2ccccc2n1`: the dissociation constant Kd in series [4] is 380 µM.
